US8574831B2, “Mutational profiles in HIV-1 reverse transcriptase correlated with phenotypic drug resistance” (Virco N.V., priority 2000, dated 2013)

Test system: HIV with mutations in the HIV protease sequence
Test: Phenotypic fold resistance to protease inhibitors, protease mutations 84A/84L/84C/54M/54L/54V in a background (Examples 8-13)
Format: cell-based, HIV-1
Summary of the method: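 Fold-resistance equals chimeric-virus IC50 divided by IC50 of a parallel wild-type reference HIV-1 strain. Chimeras come from PCR-amplified PR/RT genes recombined into PR/RT-deleted HXB2 proviral DNA inside CD4+ T cells, then cultured with graded drug concentrations.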

CC(C)c1nc(CN(C)C(=O)N[C@H](C(=O)N[C@@H](Cc2ccccc2)C[C@H](O)[C@H](Cc2ccccc2)NC(=O)OCc2cncs2)C(C)C)cs1 [Ritonavir, ritonavir]
mean fold increase in resistance (Table 9 #1, protease genotype WT): 0.6 fold
mean fold increase in resistance (Table 9 #2, protease genotype 10I): 1.15 fold
mean fold increase in resistance (Table 9 #3, protease genotype 46I): 0.8 fold
mean fold increase in resistance (Table 9 #4, protease genotype 46I + 84V): 4.6 fold
mean fold increase in resistance (Table 9 #5, protease genotype 46I + 84A): 51.8 fold
mean fold increase in resistance (Table 9 #6, protease genotype 10I + 46I): 1.5 fold
mean fold increase in resistance (Table 9 #7, protease genotype 10I + 46I + 84V): 11.9 fold
mean fold increase in resistance (Table 9 #8, protease genotype 10I + 46I + 84A): 77.3 fold
mean fold increase in resistance (Table 9 #9, protease genotype 10L/I + 46I + 84A): 114 fold
mean fold increase in resistance (Table 9 #10, protease genotype 10I + 46I + 84A): 44.5 fold
mean fold increase in resistance (Table 9 #11, protease genotype 46I + 71V): 1.4 fold
mean fold increase in resistance (Table 9 #12, protease genotype 46I + 71V + 84V/I): 1.8 fold
mean fold increase in resistance (Table 9 #13, protease genotype 46I + 71V + 84A): 102.2 fold
mean fold increase in resistance (Table 9 #14, protease genotype 10F + 46I + 71V): 4.1 fold
mean fold increase in resistance (Table 9 #15, protease genotype 10I + 46I + 71V + 84V): 45.6 fold
mean fold increase in resistance (Table 9 #16, protease genotype 10I + 46I + 71V + 84A): 114.9 fold
mean fold increase in resistance (Table 9 #17, protease genotype 10V + 46I + 71T + 84A): 91.9 fold
mean fold increase in resistance (Table 9 #18, protease genotype 10I + 46I + 71V + 77I): 1.65 fold
mean fold increase in resistance (Table 9 #19, protease genotype 10I + 46I + 71V + 77I + 84V): 3.1 fold
mean fold increase in resistance (Table 9 #20, protease genotype 10I + 46I + 71V + 77I + 84A): 121.3 fold
mean fold increase in resistance (Table 9 #21, protease genotype 10I + 33L/I + 46I + 71V + 77V/I + 84A): 38.6 fold
mean fold increase in resistance (Table 10 #1, protease genotype 10I + 36I + 71V): 1.2 fold
mean fold increase in resistance (Table 10 #2, protease genotype 10I + 36I + 71I + 84V): 1.5 fold
mean fold increase in resistance (Table 10 #3, protease genotype 10I + 36I + 71I + 84L): 0.8 fold
mean fold increase in resistance (Table 11 #1, protease genotype WT): 0.6 fold
mean fold increase in resistance (Table 11 #2, protease genotype 84V): 2.4 fold
mean fold increase in resistance (Table 11 #3, protease genotype 84C): 2.9 fold
mean fold increase in resistance (Table 11 #4, protease genotype 10I): 1.2 fold
mean fold increase in resistance (Table 11 #5, protease genotype 10I + 84V): 6.5 fold
mean fold increase in resistance (Table 11 #6, protease genotype 10I + 84C): 5.4 fold
mean fold increase in resistance (Table 11 #7, protease genotype 77I): 0.4 fold
mean fold increase in resistance (Table 11 #8, protease genotype 77I + 84V): 5.0 fold
mean fold increase in resistance (Table 11 #9, protease genotype 77I + 84C): 2.8 fold
mean fold increase in resistance (Table 11 #10, protease genotype 77I + 84C): 3.2 fold
mean fold increase in resistance (Table 11 #11, protease genotype 10I + 24I + 36I + 46I + 71V + 84C): 47 fold
Fold change in IC50 (Table 12, V19263, genotype 77I): 0.4 fold
Fold change in IC50 (Table 12, V20160, genotype WT): 0.6 fold
Fold change in IC50 (Table 12, V021667, genotype 10I): 1.2 fold
Fold change in IC50 (Table 12, V030496, genotype 10I + 77I): 0.5 fold
Fold change in IC50 (Table 12, V048869, genotype 10I + 54M + 77I + 90M): 20.0 fold
Fold change in IC50 (Table 12, V048872, genotype 33F + 54M + 77I + 90M): 8.7 fold
Fold change in IC50 (Table 12, V048873, genotype 33F + 54M + 77I + 90M): 11.4 fold
Fold change in IC50 (Table 12, V048877, genotype 10I + 33F + 77I + 90M): 20.5 fold
Fold change in IC50 (Table 12, V048878, genotype 10I + 33F + 54M + 71V + 77I + 90M): 17.2 fold
Fold change in IC50 (Table 12, V048879, genotype 10I + 33F + 54M + 71V + 77I + 90M): 74.0 fold
Fold change in IC50 (Table 12, V048880, genotype 10I + 33F + 77I + 90M): 3.6 fold
Fold change in IC50 (Table 12, V052940, genotype 71V): 0.4 fold
Fold change in IC50 (Table 12, V052942, genotype 10I + 71V): 0.6 fold
Fold change in IC50 (Table 12, V052943, genotype 10I + 90M): 1.8 fold
Fold change in IC50 (Table 12, V052944, genotype 10I + 90M): 1.5 fold
Fold change in IC50 (Table 12, V052945, genotype 77I + 90M): 1.9 fold
Fold change in IC50 (Table 12, V052946, genotype 71V + 90M): 2.0 fold
Fold change in IC50 (Table 12, V052947, genotype 10I + 77I + 90M): 6.9 fold
Fold change in IC50 (Table 12, V052948, genotype 10I + 71V + 90M): 10.5 fold
Fold change in IC50 (Table 12, V052949, genotype 10I + 71V + 77I + 90M): 2.3 fold
Fold change in IC50 (Table 12, V052950, genotype 33F): 1.5 fold
Fold change in IC50 (Table 12, V052951, genotype 33F + 77I): 0.3 fold
Fold change in IC50 (Table 12, V052953, genotype 10I + 33F + 77I): 1.1 fold
Fold change in IC50 (Table 12, V052954, genotype 33F + 77I + 90M): 2.2 fold
Fold change in IC50 (Table 12, V052955, genotype 33F + 71V + 90M): 77.9 fold
Fold change in IC50 (Table 12, V052977, genotype 10I + 33F + 54M): 35.5 fold
Fold change in IC50 (Table 12, V052978, genotype 10I + 33F + 54M + 71V + 90M): 17.9 fold
Fold change in IC50 (Table 12, V052979, genotype 10I + 54M): 20.0 fold
Fold change in IC50 (Table 12, V052980, genotype 10I + 54M + 90M): 4.1 fold
Fold change in IC50 (Table 12, V052981, genotype 10I + 54M + 71V + 90M): 9.4 fold
Fold change in IC50 (Table 12, V052982, genotype 10I + 54M + 71V + 77I + 90M): 13.4 fold
Fold change in IC50 (Table 12, V053832, genotype 10I + 33F): 2.9 fold
